What follows are compounds tested against TNFα trimer (Homo sapiens, UniProt P01375) (assay: TNFα FP Competitive Binding Assay). Details: TNFα FP competitive binding assay; class symbols A/B/C; read-out: TNF IC50.
Protocol: TNFα FP Competitive Binding Assay
• 1. Assay Buffer: Prepare 1× Assay Buffer (Water with 47 mM HEPES, 47 mM NaCl, 0.9 mM EDTA, 0.0071% Triton X-100) by adding 25 mL of 1 M HEPES, 5 mL of 5 M NaCl, 1 mL of 0.5 M EDTA, and 375 μL of a 10% Triton X-100 stock to a fresh 500 mL bottle of water. • 2. Assay Mixture: Prepare fresh Assay Mixture containing 20 nM TNFα trimer (60 nM protein) and 1 nM 2′,7′-difluoro-3′,6′-dihydroxy-N-(2-(2-(2-((4-(isoquinolin-8-yl)-3-(4-(isoquinolin-8-yl)phenethoxy)benzyl)oxy)ethoxy)ethoxy)ethyl)-3-oxo-3H-spiro[isobenzofuran-1,9′-xanthene]-5-carboxamide probe in 1× Assay Buffer.
Compound Plate Preparation
Manual 12-point 1:3 Dilution Plates: (384 well polypropylene plates)
Top concentration of compounds, 10 mM in DMSO, dispensed in rows A-O in columns 1 and 13. Compounds are serially diluted 1:3 with DMSO in columns 2-12 or 14-24 using a 16-channel Matrix pipettor. Plates stored at −20° C.
Discovery Preps 12-point 1:3 Dilution Plates: (384 well assay plates)
Top concentration, 5 mM in DMSO, of compounds placed in rows A-O in columns 1 and 13. Compounds are serially diluted 1:3 with DMSO in columns 2-12 or 14-24. Compound solutions are dispensed into replicate assay plates at 410 nL per well. Plates stored at 4° C.
TNFα FP Competitive Binding Assay Protocol
• 1. Compound plates are warmed to rt. • 2. Fresh Assay Mixture is prepared. • 3. Assay Mixture (20 μL) is dispensed each well of 384 assay plates using a Thermo Multidrop Combi or 16-channel Matrix pipettor. If Manual 12-point 1:3 Dilution Plates are to be tested, Assay Mix is dispensed into empty plates. Discovery Preps 12-point 1:3 Dilution Plates already contain 410 nL compound solution in DMSO. • 4. For Manual 12-point 1:3 Dilution Plates, 0.7 μL is manually transferred using a 16-channel Matrix pipettor to replicate assay plates containing 20 μL Assay Mixture for a final top compound concentration of 338 μM (3.4% DMSO). • 5. For Discovery Preps 12-point 1:3 Dilution Plates, 20 μL Assay Mixture added the 410 nL compound solution already in the plates yields a final top compound concentration of 100 μM (2.0% DMSO). • 6. Background subtraction controls are wells P1-P8 containing only Assay Buffer. The low % inhibition controls are wells P9-P16 containing only Assay Mix. The high % inhibition are wells P17-P24 containing only 1 nM 2′,7′-difluoro-3′,6′-dihydroxy-N-(2-(2-(2-((4-(isoquinolin-8-yl)-3-(4-(isoquinolin-8-yl)phenethoxy)benzyl)oxy)ethoxy)ethoxy)ethyl)-3-oxo-3H-spiro[isobenzofuran-1,9′-xanthene]-5-carboxamide probe in 1× Assay Buffer. • 7. Plates are incubated at […] for 18-24 h in 37° C. incubator (CO2 is off). • 8. Prior to reading the assay, the plates are placed in a dark cabinet to equilibrate at rt for one hour. • 9. Background-subtracted fluorescence polarization (mP) is measured using a PerkinElmer Envision plate reader. • 10. Raw data is entered into Assay Explorer and dose-response curves are generated using a variable slope curve.

TNFα trimer, sequence (P01375 77-233 limits assumed): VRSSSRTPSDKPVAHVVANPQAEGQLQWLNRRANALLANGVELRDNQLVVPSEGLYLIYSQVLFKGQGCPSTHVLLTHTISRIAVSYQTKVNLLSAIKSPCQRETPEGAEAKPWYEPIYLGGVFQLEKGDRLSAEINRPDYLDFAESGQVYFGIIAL

IC50 | Compound
1000 to 10000 nM | CC(=O)N1CCN(c2ccc(-c3ccc4nc5n(c4c3)C(c3ccccc3)COC5)cn2)CC1 (stereo not drawn) [T.13]
10000 to 100000 nM | c1ccc(C2COCc3nc4ccc(-c5cncnc5)cc4n32)cc1 (stereo not drawn) [T.26]
1000 to 10000 nM | CC(C)(O)c1ncc(-c2ccc3nc4n(c3n2)[C@@]2(CCOc3ccccc32)COC4)cn1 [Y.15]
< 1000 nM | O=C1NCC2CN(c3ncc(-c4ccc5nc6n(c5c4)C4(CCc5ccccc54)COC6)cn3)CCN12 (stereo not drawn) [V.3]
10000 to 100000 nM | Cn1cnc2cc(-c3ccc4nc5n(c4c3)C(c3ccccc3)COC5)cnc21 (stereo not drawn) [T.32]
< 1000 nM | OC1CC2(CCN(c3ncc(-c4ccc5nc6n(c5c4)C(c4cccc(F)c4)COC6)cn3)CC2)C1 (stereo not drawn) [X.2]
1000 to 10000 nM | c1ccc(C2COCc3nc4ccc(-c5cnc(-n6cccn6)nc5)cc4n32)cc1 (stereo not drawn) [T.23]

Second part, the compound before the results:

Compound | IC50
c1ccc([C@H]2CCc3nc4ccc(-c5ccnc(OC6CCCCC6)c5)nc4n32)cc1 [AS.3] | 1000 to 10000 nM
C[C@@H]1CN(c2ncc(-c3ccc4nc5n(c4n3)C3(COC5)COc4ccccc43)cn2)CCN1C(=O)COC(C)(C)C (stereo partly drawn) [BG.6, 1-((2R)-4-(5-(2H,6′H,8′H-Spiro[benzofuran-3,9′-pyrido[3′,2′:4,5]imidazo[2,1-c][1,4]oxazin]-2′-yl)pyrimidin-2-yl)-2-methylpiperazin-1-yl)-2-(tert-butoxy)ethan-1-one] | < 1000 nM
CC(O)(CC1CC1)c1ncc(-c2ccc3nc4n(c3n2)[C@@H](c2ccccc2)CC4)cn1 (stereo partly drawn) [AL.5] | 1000 to 10000 nM
CC1(O)CN(c2ncc(-c3ccc4nc5n(c4n3)C3(CCOc4ccccc43)COC5)cn2)C1 (stereo not drawn) [BB.7] | 1000 to 10000 nM
COc1ncc(-c2ccc3nc4n(c3n2)C2(COC4)COc3ccccc32)cn1 (stereo not drawn) [BG.2] | 1000 to 10000 nM
O=C1NCC2CN(c3ncc(-c4ccc5nc6n(c5n4)C(C4CCCCC4)CC6)cn3)CCN12 (stereo not drawn) [AH.6] | < 1000 nM
COCCOc1cc(-c2ccc3nc4n(c3n2)[C@@H](c2ccccc2)CC4)ccn1 [BC.1] | 1000 to 10000 nM
O=C(CO)N1CCN(c2ncc(-c3ccc4nc5n(c4n3)C3(CCc4ccccc43)COC5)cn2)CC1 (stereo not drawn) [AV.6] | < 1000 nM
C[C@H]1CN(C(=O)COC(C)(C)C)CCN1c1ncc(-c2ccc3nc4n(c3n2)C2(COC4)COc3ccccc32)cn1 (stereo partly drawn) [BG.4, 1-((3S)-4-(5-(2H,6′H,8′H-Spiro[benzofuran-3,9′-pyrido[3′,2′:4,5]imidazo[2,1-c][1,4]oxazin]-2′-yl)pyrimidin-2-yl)-3-methylpiperazin-1-yl)-2-(tert-butoxy)ethan-1-one] | 1000 to 10000 nM
C[C@@H]1CN(C(=O)COC(C)(C)C)CCN1c1ncc(-c2ccc3nc4n(c3n2)C2(COC4)COc3ccccc32)cn1 (stereo partly drawn) [BG.5, 1-((3R)-4-(5-(2H,6′H,8′H-Spiro[benzofuran-3,9′-pyrido[3′,2′:4,5]imidazo[2,1-c][1,4]oxazin]-2′-yl)pyrimidin-2-yl)-3-methylpiperazin-1-yl)-2-(tert-butoxy)ethan-1-one] | 1000 to 10000 nM
OCC1CCCN(c2ncc(-c3ccc4nc5n(c4n3)C3(CCc4ccccc43)COC5)cn2)C1 (stereo not drawn) [AV.1] | < 1000 nM
COc1ccccc1[C@H]1CCc2nc3ccc(-c4cnc(N5CCC(O)CC5)nc4)nc3n21 [AO.3] | < 1000 nM
OCC1(F)CCN(c2ncc(-c3ccc4nc5n(c4n3)C(c3ccccc3)COC5)cn2)CC1 (stereo not drawn) [AZ.5] | < 1000 nM
c1ccc2c(c1)OCC21COCc2nc3ccc(-c4ccnc(OC5CCOCC5)c4)nc3n21 (stereo not drawn) [BG.1] | 1000 to 10000 nM
c1ccc2c(c1)OCCC21COCc2nc3ccc(-c4ccnc(OC5CCOCC5)c4)nc3n21 (stereo not drawn) [BA.8] | < 1000 nM

Same assay, conditions: fluorescence polarization competition; 20 nM TNFα trimer, 1 nM OregonGreen488 probe; read-out: TNF IC50 (TNFα FP binding assay IC50)

IC50 | Compound
1000 to 10000 nM | CS(=O)(=O)C1(CO)CCN(c2ncc(-c3ccc4nc5n(c4c3)[C@@H](c3ccccc3)COC5)cn2)CC1 [G.33]
1000 to 10000 nM | CC(C)(O)c1ncc(-c2ccc3nc4n(c3n2)C(c2ccccc2)C2CC4C2)cn1 (stereo not drawn) [Example 63, 2-(5-(9-Phenyl-6,7,8,9-tetrahydro-6,8-methanoimidazo[1,2-a:5,4-b′]dipyridin-2-yl)pyrimidin-2-yl)propan-2-ol]
1000 to 10000 nM | OCCCN1CCN(c2ncc(-c3ccc4nc5n(c4c3)[C@@H](c3ccccc3)COC5)cn2)CC1 [G.5]
1000 to 10000 nM | c1ccc2c(c1)OCCC21COCc2nc3ccc(-c4cnc(N5CCNCC5)nc4)nc3n21 (stereo not drawn) [Example 59, 2′-(2-(Piperazin-1-yl)pyrimidin-5-yl)-6′H,8′H-spiro[chromane-4,9′-pyrido[3′,2′:4,5]imidazo[2,1-c][1,4]oxazine]]
1000 to 10000 nM | c1ccc([C@H]2CCc3nc4ccc(-c5ccnc(OC6CCCOC6)c5)nc4n32)cc1 (stereo partly drawn) [Example 48, (8R)-8-Phenyl-2-(2-((tetrahydro-2H-pyran-3-yl)oxy)pyridin-4-yl)-7,8-dihydro-6H-pyrrolo[2′,1′:2,3]imidazo[4,5-b]pyridine]
< 1000 nM | CC(C)(O)c1ncc(-c2ccc3nc4n(c3n2)C(c2ccccc2)CC4)cn1 (stereo not drawn) [L.1]

Further lines, the compound ahead of its results:

Compound | IC50
O=C(NCC1CCCO1)c1ccc(-c2ccc3nc4n(c3c2)C(c2ccccc2)CC4)cc1 (stereo not drawn) [A.26] | 1000 to 10000 nM
OC[C@H]1CCCN1c1ncc(-c2ccc3nc4n(c3n2)[C@@H](c2ccccc2)CC4)cn1 [Example 40, ((R)-1-(5-((R)-8-Phenyl-7,8-dihydro-6H-pyrrolo[2′,1′:2,3]imidazo[4,5-b]pyridin-2-yl)pyrimidin-2-yl)pyrrolidin-2-yl)methanol] | 1000 to 10000 nM
1-((R)-4-(5-((R)-8-(3-(Hydroxymethyl)phenyl)-7,8-dihydro-6H-pyrrolo[2′,1′:2,3]imidazo[4,5-b]pyridin-2-yl)pyrimidin-2-yl)-2-methylpiperazin-1-yl)ethanone [Example 45] | 1000 to 10000 nM
COc1ccccc1C1CCCc2nc3ccc(-c4cnc(C(C)(C)O)nc4)cn3c21 (stereo not drawn) [Example 16, 2-(5-(9-(2-Methoxyphenyl)-6,7,8,9-tetrahydrobenzo[4,5]imidazo[1,2-a]pyridin-2-yl)pyrimidin-2-yl)propan-2-ol] | < 1000 nM
CC(C)[C@H](N)C(=O)OC1CCN(c2ncc(-c3ccc4nc5n(c4n3)[C@@H](c3ccccc3)CC5)cn2)CC1 [Example 46, (S)-1-(5-((R)-8-Phenyl-7,8-dihydro-6H-pyrrolo[2′,1′:2,3]imidazo[4,5-b]pyridin-2-yl)pyrimidin-2-yl)piperidin-4-yl 2-amino-3-methylbutanoate] | 1000 to 10000 nM
CCS(=O)(=O)c1ccc(-c2ccc3nc4n(c3c2)C(c2ccccc2)CC4)cc1 (stereo not drawn) [A.2] | < 1000 nM
Cc1ncccc1-c1ccc2nc3n(c2c1)C(c1ccccc1)CC3 (stereo not drawn) [A.32] | 10000 to 100000 nM
COc1ccccc1C1=CCCc2nc3ccc(-c4cnc(N5CCOCC5)nc4)cn3c21 [Example 14, 4-(5-(9-(2-Methoxyphenyl)-6,7-dihydrobenzo[4,5]imidazo[1,2-a]pyridin-2-yl)pyrimidin-2-yl)morpholine] | 10000 to 100000 nM
COc1ccccc1[C@H]1CCc2nc3ccc(-c4cnc(C(C)(C)O)nc4)cn3c21 [Example 12, (R)-2-(5-(1-(2-methoxyphenyl)-2,3-dihydro-1H-cyclopenta[4,5]imidazo[1,2-a]pyridin-7-yl)pyrimidin-2-yl)propan-2-ol] | < 1000 nM
c1ccc(C2CCc3nc4ccc(N5CCN(c6ncccn6)CC5)nc4n32)cc1 (stereo not drawn) [Example 18, 8-Phenyl-2-(4-(pyrimidin-2-yl)piperazin-1-yl)-7,8-dihydro-6H-pyrrolo[2′,1′:2,3]imidazo[4,5-b]pyridine] | 1000 to 10000 nM
c1ccc(C2CCc3nc4ccc(-c5cccnc5)cc4n32)cc1 (stereo not drawn) [A.22] | 1000 to 10000 nM

— patent publication US20180179198A1, “TRICYCLIC MODULATORS OF TNF SIGNALING” (AbbVie Inc., priority 2015, published 2018)
